Source: PMC10551889 (Bioorganic & medicinal chemistry, 2022)
“Also recorded” adds a separate entry of the source.

Each molecule was assayed against Mtb PanD (Mycobacterium tuberculosis, UniProt P9WIL3) (assay: biochemical).
Mtb PanD, sequence (P9WIL3 25-139): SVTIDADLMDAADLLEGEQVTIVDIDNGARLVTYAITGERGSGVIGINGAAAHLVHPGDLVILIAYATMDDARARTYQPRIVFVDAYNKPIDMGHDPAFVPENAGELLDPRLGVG
Mtb PanD, sequence (P9WIL3 1-24): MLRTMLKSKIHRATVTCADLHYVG
Format: binding
In the case of `Nc1nccnc1C(=O)O` [compound 23], the Kd is reported as 37 to 47 µM. Molecule `Nc1cnc(C(=O)O)cn1` [compound 24] has a Kd of 37 to 47 µM. `CCN(CC)c1nccnc1C(=O)[O-].[Na+]` [compound 58, Sodium 3-(diethylamino)pyrazine-2-carboxylate] was tested, and the “PanD binding (in words)” value was “no binding; also recorded: did not bind at all; also recorded: did not bind to PanD”.

These molecules were tested on M. bovis BCG Pasteur ATCC 35734 (assay: not given).
Format: cell-based, Mycobacterium bovis BCG
`NS(=O)(=O)c1cnccn1` [compound 14] was tested, and the “antimycobacterial activity (in words)” value was “inactive or weakly active”. `O=C([O-])c1nccnc1N1CCOCC1.[Na+]` [compound 64, Sodium 3-(morpholino)pyrazine-2-carboxylate] was tested, and the “antimycobacterial activity (in words)” value was “abolished activity”. For `CCN(CC)c1cnc(C(=O)[O-])cn1.[Na+]` [compound 73, Sodium 5-(diethylamino)pyrazine-2-carboxylate], the “antimycobacterial activity (in words)” value was “equipotent to the parent POA”. `NC(=S)c1cnccn1` [compound 13] was tested, and the “antimycobacterial activity (in words)” value was “inactive or weakly active”. `O=C([O-])c1cncc(-c2ccccc2)n1.[Na+]` [compound 40, Sodium 6-phenylpyrazine-2-carboxylate] was tested, and the “fold less potent than POA” value was ~2 fold. In the case of `Nc1cncc(C(=O)O)n1` [compound 25, 6-amino-POA], the “antimycobacterial activity (in words)” value is reported as “loss of activity”. For `CC(=O)NS(=O)(=O)c1cnccn1` [compound 15, N-(Pyrazin-2-ylsulfonyl)acetamide], the “antimycobacterial activity (in words)” value was “inactive or weakly active”. For `CCCCNc1cnc(C(=O)[O-])cn1.[Na+]` [compound 72, Sodium 5-(n-butylamino)pyrazine-2-carboxylate], the “MIC50 (MIC, concentration that inhibits fifty percent of growth)” value was 0.4 mM. With `O=C([O-])c1cnc(NC2CCCC2)cn1.[Na+]` [compound 76, Sodium 5-(cyclopentylamino)pyrazine-2-carboxylate] the “antimycobacterial activity (in words)” value was “Loss of potency”. In the case of `CC(C)Nc1cnc(C(=O)[O-])cn1.[Na+]` [compound 71, Sodium 5-(2-propylamino)pyrazine-2-carboxylate], the “antimycobacterial activity (in words)” value is reported as “Loss of potency”. With `O=C([O-])c1cncc(NC(=O)C2CCCCC2)n1.[Na+]` [compound 80, Sodium 6-(cyclohexanecarboxamido)pyrazine-2-carboxylate] the “antimycobacterial activity (in words)” value was “obliterated activity”. In the case of `c1cnc(-c2nnn[nH]2)cn1` [compound 12, 2-(1H-Tetrazol-5-yl)pyrazine], the “antimycobacterial activity (in words)” value is reported as “inactive or weakly active”. With `CCN(CC)c1nccnc1C(=O)[O-].[Na+]` [compound 58, Sodium 3-(diethylamino)pyrazine-2-carboxylate] the “antimycobacterial activity (in words)” value was “loss of activity”. `Cc1ccccc1-c1nccnc1C(=O)[O-].[Na+]` [compound 36, Sodium 3-(o-tolyl)pyrazine-2-carboxylate] was tested, and the “antimycobacterial activity (in words)” value was “completed obliterated activity”. In the case of `CCNc1cnc(C(=O)[O-])cn1.[Na+]` [compound 42, Sodium 5-(ethylamino)pyrazine-2-carboxylate], the “antimycobacterial activity (in words)” value is reported as “Loss of potency”. `O=C([O-])c1nccnc1N1CCC2(CC1)CC2.[Na+]` [compound 66, Sodium 3-(6-azaspiro[2,5]octan-6-yl)pyrazine-2-carboxylate] was tested, and the “antimycobacterial activity (in words)” value was “abolished activity”. `O=C([O-])c1cnc(NC2CCC2)cn1.[Na+]` [compound 48, Sodium 5-(cyclobutylamino)pyrazine-2-carboxylate] was tested, and the “antimycobacterial activity (in words)” value was “Loss of potency”. With `O=C([O-])c1cnc(-c2ccccc2)cn1.[Na+]` [compound 39, Sodium 5-(phenyl)pyrazine-2-carboxylate] the “antimycobacterial activity (in words)” value was “eliminated activity”. `CC(=O)c1cnccn1` [compound 16] was tested, and the “antimycobacterial activity (in words)” value was “eliminated activity”. In the case of `O=C([O-])c1nccnc1N1CCCC1.[Na+]` [compound 62, Sodium 3-(pyrrolidine-1-yl)pyrazine-2-carboxylate], the “antimycobacterial activity (in words)” value is reported as “abolished activity”. With `O=C([O-])c1nccnc1N1CCSCC1.[Na+]` [compound 65, Sodium 3-(thiomorpholino)pyrazine-2-carboxylate] the “antimycobacterial activity (in words)” value was “abolished activity”. In the case of `CCCNc1cnc(C(=O)[O-])cn1.[Na+]` [compound 70, Sodium 5-(n-propylamino)pyrazine-2-carboxylate], the “antimycobacterial activity (in words)” value is reported as “Loss of potency”. `O=C([O-])c1nccnc1N1CCCCC1.[Na+]` [compound 63, Sodium 3-(piperidin-1-yl)pyrazine-2-carboxylate] was tested, and the “antimycobacterial activity (in words)” value was “abolished activity”.

What follows are molecules tested on M. bovis BCG mutant POA2 (PanD Leu132Arg) (assay: not given).
Format: cell-based, Mycobacterium bovis BCG
`O=C([O-])c1nccnc1Nc1ccccc1.[Na+]` [compound 59, Sodium 3-(anilino)pyrazine-2-carboxylate] was tested, and the “shift in growth inhibition potency against PanD mutant vs wildtype (in words)” value (“shift in growth inhibition potency” below) was “moderate shift”. For `Nc1nccnc1C(=O)O` [compound 23], the “shift in growth inhibition potency” value was “minimal shift”. In the case of `CC(C)Nc1nccnc1C(=O)[O-].[Na+]` [compound 55, Sodium 3-(2-propylamino)pyrazine-2-carboxylate], the “shift in growth inhibition potency” value is reported as “moderate shift”. With `Nc1cnc(C(=O)O)cn1` [compound 24] the “shift in growth inhibition potency” value was “moderate shift”. In the case of `CCCNc1nccnc1C(=O)[O-].[Na+]` [compound 54, Sodium 3-(propylamino)pyrazine-2-carboxylate], the “shift in growth inhibition potency” value is reported as “moderate shift”.

Each molecule was assayed on Vero cells (assay: not given).
With `CC(C)(C)Nc1nccnc1C(=O)[O-].[Na+]` [compound 56, Sodium 3-(tert-butylamino)pyrazine-2-carboxylate] the “cytotoxicity at higher concentrations” value was ~ 50%.
